Activity calls are given as the source filed them. For most assays here, no stated cut-off is given here; in the data, actives have a measured Kd and inactives only a lower limit.
What was measured:
[1] = biological target: T1, Cyclin-G-associated kinase (Homo sapiens, UniProt O14976)
T1 sequence (O14976 whole entry): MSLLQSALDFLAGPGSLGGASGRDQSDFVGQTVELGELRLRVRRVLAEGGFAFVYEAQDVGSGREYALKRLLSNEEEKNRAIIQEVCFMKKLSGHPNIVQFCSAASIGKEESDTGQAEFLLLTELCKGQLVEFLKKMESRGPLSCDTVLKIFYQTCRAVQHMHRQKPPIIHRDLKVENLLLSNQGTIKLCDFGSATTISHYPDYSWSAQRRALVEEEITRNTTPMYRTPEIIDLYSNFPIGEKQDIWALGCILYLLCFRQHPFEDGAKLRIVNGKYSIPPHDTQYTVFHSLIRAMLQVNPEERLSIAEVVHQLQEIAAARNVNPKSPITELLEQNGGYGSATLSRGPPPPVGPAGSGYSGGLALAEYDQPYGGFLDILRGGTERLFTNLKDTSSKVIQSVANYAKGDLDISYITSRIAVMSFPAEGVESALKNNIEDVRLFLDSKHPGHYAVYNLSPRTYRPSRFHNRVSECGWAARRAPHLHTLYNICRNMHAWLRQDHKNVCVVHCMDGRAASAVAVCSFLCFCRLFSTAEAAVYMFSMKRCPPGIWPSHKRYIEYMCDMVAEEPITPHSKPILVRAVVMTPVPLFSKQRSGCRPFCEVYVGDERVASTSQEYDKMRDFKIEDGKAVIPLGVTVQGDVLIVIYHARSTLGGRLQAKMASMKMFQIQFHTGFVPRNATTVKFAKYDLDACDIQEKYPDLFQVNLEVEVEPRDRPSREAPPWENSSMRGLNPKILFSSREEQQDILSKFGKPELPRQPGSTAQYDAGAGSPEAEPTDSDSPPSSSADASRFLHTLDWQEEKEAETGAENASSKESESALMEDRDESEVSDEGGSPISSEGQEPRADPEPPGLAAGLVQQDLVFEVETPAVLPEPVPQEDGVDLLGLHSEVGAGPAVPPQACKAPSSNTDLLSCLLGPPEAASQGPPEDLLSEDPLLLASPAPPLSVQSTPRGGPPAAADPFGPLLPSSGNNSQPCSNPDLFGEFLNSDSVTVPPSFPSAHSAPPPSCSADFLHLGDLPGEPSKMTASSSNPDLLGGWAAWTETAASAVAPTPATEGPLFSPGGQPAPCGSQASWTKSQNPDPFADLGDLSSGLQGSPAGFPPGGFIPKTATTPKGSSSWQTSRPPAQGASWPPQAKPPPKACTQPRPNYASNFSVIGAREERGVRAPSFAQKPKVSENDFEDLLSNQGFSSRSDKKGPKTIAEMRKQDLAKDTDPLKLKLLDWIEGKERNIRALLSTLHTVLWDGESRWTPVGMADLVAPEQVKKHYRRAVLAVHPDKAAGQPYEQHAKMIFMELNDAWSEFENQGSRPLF

[2] = biological target: T2, Heme oxygenase 2 (Homo sapiens, UniProt P30519)
T2 sequence (P30519 whole entry): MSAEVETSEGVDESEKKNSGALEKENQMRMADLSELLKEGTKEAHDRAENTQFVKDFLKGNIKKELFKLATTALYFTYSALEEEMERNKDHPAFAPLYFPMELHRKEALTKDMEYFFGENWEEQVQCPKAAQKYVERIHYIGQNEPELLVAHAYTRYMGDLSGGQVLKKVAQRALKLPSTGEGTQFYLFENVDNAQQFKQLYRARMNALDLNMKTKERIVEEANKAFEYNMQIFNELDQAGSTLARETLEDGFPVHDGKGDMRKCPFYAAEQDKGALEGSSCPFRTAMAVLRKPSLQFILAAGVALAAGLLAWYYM

[3] = biological target: STE20-like serine/threonine-protein kinase (Homo sapiens, UniProt Q9H2G2)
[4] = biological target: cAMP-dependent protein kinase catalytic subunit beta (Homo sapiens, UniProt P22694)
[5] = biological target: T3, Serine/threonine-protein kinase ULK1 (Homo sapiens, UniProt O75385)
T3 sequence (O75385 whole entry): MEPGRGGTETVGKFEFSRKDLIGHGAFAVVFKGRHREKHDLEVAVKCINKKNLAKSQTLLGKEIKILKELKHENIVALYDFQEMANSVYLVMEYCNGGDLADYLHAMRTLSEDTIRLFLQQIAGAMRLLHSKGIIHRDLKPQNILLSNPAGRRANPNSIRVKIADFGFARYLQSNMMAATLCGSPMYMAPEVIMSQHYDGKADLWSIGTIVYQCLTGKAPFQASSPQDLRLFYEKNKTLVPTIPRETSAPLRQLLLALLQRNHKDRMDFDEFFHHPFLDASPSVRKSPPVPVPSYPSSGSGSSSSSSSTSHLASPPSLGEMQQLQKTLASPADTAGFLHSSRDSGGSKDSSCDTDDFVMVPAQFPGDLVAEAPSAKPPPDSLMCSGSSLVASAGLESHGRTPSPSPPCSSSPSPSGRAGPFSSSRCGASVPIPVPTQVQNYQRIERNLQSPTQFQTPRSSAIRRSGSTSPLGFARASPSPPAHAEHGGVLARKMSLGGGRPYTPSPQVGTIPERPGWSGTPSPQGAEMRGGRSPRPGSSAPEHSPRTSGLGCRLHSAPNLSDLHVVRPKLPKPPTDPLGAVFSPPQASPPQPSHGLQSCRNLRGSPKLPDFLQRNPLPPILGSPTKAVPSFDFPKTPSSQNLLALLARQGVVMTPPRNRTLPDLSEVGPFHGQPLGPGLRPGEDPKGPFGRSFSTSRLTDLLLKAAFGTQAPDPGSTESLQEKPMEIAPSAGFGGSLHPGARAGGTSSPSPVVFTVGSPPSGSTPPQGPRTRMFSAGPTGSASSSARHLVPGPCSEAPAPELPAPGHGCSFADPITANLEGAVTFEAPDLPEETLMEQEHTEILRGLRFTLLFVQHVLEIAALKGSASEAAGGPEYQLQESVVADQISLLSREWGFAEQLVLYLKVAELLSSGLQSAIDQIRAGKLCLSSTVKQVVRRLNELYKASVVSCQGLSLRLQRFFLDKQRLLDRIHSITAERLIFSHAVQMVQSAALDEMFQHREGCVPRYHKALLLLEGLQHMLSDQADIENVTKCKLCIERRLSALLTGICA

[6] = biological target: Dual specificity mitogen-activated protein kinase kinase 1 (Homo sapiens, UniProt Q02750)
Sequence of Dual specificity mitogen-activated protein kinase kinase 1 (Q02750 whole entry): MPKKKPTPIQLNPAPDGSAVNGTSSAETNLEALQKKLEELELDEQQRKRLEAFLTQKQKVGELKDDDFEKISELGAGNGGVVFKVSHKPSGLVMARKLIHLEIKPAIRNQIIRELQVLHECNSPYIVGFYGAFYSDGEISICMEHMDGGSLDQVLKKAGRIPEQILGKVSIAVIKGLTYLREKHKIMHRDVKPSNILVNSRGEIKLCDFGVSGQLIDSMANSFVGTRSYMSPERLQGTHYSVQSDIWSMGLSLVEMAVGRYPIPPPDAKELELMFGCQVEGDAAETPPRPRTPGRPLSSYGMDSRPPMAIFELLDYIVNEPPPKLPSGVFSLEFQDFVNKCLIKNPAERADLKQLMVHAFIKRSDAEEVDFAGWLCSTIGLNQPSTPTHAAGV

Sequence of STE20-like serine/threonine-protein kinase (Q9H2G2 whole entry): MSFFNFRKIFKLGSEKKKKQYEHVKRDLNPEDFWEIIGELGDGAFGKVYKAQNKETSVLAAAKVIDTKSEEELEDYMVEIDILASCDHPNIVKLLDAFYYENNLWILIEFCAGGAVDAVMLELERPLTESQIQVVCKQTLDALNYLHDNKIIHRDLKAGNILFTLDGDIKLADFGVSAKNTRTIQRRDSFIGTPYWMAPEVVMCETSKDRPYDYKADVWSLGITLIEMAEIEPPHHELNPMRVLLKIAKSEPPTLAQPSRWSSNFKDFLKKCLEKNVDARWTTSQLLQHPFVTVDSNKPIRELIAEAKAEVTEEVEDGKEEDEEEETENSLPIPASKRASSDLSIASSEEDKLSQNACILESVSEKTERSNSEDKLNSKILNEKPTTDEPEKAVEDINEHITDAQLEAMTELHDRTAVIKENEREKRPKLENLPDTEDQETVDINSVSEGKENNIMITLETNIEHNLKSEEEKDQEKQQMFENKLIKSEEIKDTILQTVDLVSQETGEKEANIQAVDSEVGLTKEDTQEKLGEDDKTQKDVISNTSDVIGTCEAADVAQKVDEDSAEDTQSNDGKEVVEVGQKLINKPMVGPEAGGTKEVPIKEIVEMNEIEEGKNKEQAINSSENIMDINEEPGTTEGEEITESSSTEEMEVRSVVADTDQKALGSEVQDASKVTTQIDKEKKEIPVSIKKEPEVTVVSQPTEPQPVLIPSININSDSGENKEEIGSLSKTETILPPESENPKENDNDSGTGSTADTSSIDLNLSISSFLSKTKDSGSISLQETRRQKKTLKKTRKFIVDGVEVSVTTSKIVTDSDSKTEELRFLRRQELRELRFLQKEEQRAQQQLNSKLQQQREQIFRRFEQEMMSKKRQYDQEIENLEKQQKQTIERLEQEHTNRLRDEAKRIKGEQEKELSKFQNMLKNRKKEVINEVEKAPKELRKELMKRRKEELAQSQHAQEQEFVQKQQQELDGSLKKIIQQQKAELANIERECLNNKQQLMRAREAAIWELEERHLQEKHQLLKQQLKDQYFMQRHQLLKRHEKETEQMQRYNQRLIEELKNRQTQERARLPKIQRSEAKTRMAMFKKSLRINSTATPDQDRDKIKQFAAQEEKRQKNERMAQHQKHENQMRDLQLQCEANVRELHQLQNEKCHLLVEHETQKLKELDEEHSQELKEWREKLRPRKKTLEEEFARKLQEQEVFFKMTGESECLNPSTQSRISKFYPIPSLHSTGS

| SMILES | Kd [1] | Kd [2] | Kd [3] | Kd [4] | Kd [5] | Kd [6] |
| --- | --- | --- | --- | --- | --- | --- |
| Cc1ccc(S(=O)(=O)Nc2nc3ccccc3nc2Nc2ccc3nsnc3c2)cc1 | > 30 µM (inactive) | > 30 µM (inactive) | > 30 µM (inactive) | > 30 µM (inactive) | > 30 µM (inactive) | > 30 µM (inactive) |
| C=CC(=O)N1CCC(Oc2cc3c(Nc4ccc(Cl)c(Cl)c4F)ncnc3cc2OC)CC1 [POZIOTINIB] | > 30 µM (inactive) | > 30 µM (inactive) | > 30 µM (inactive) | > 30 µM (inactive) | > 30 µM (inactive) | > 30 µM (inactive) |
| COc1cc(N2CCC(N3CCN(C)CC3)CC2)ccc1Nc1ncnc(Nc2ccccc2S(=O)(=O)C(C)C)n1 [ASP-3026] | 2.82 µM (active) | > 30 µM (inactive) | 36.3 µM (active) | > 30 µM (inactive) | > 30 µM (inactive) | > 30 µM (inactive) |
| CCN1CCN(Cc2ccc(-c3cc4c(N[C@H](C)c5ccccc5)ncnc4[nH]3)cc2)CC1 [AEE-788] | > 30 µM (inactive) | > 30 µM (inactive) | 99.2 µM (active) | > 30 µM (inactive) | > 30 µM (inactive) | > 30 µM (inactive) |
| O=C1NC(=O)/C(=C/c2ccc3nccc(-c4ccncc4)c3c2)S1 [GSK-1059615] | 7.44 µM (active) | > 30 µM (inactive) | 4.32 µM (active) | > 30 µM (inactive) | > 30 µM (inactive) | 18.5 µM (active) |
| CN1CC[C@@H](c2c(O)cc(O)c3c(=O)cc(-c4ccccc4Cl)oc23)[C@@H]1CO | > 30 µM (inactive) | > 30 µM (inactive) | > 30 µM (inactive) | > 30 µM (inactive) | > 30 µM (inactive) | > 30 µM (inactive) |
| CC[C@H](Nc1ncnc2[nH]cnc12)c1nc2cccc(F)c2c(=O)n1-c1ccccc1 [IDELALISIB] | > 30 µM (inactive) | > 30 µM (inactive) | > 30 µM (inactive) | > 30 µM (inactive) | > 30 µM (inactive) | > 30 µM (inactive) |
| COC(=O)N[C@@H](C)CNc1nccc(-c2cn(C(C)C)nc2-c2cc(Cl)cc(NS(C)(=O)=O)c2F)n1 [ENCORAFENIB] | > 30 µM (inactive) | > 30 µM (inactive) | > 30 µM (inactive) | > 30 µM (inactive) | > 30 µM (inactive) | > 30 µM (inactive) |
| Cn1cc(-c2ccc3nnc(C(F)(F)c4ccc5ncccc5c4)n3n2)cn1 [JNJ-38877605] | > 30 µM (inactive) | > 30 µM (inactive) | > 30 µM (inactive) | > 30 µM (inactive) | > 30 µM (inactive) | > 30 µM (inactive) |
| COCCNCc1ccc(-c2cc3nccc(Oc4ccc(NC(=S)NC(=O)Cc5ccc(F)cc5)cc4F)c3s2)nc1 [GLESATINIB] | > 30 µM (inactive) | > 30 µM (inactive) | > 30 µM (inactive) | > 30 µM (inactive) | > 30 µM (inactive) | > 30 µM (inactive) |
| N[C@@H]1CCCN(c2c(/C=C3\SC(=O)NC3=O)cccc2-c2ccccc2)C1 | > 30 µM (inactive) | > 30 µM (inactive) | > 30 µM (inactive) | > 30 µM (inactive) | > 30 µM (inactive) | > 30 µM (inactive) |
| Cc1cc(-c2cc(O)ccc2Cl)cc2nnc(Nc3ccc(OCCN4CCCC4)cc3)nc12 | 0.002 µM (active) | > 30 µM (inactive) | > 30 µM (inactive) | > 30 µM (inactive) | > 30 µM (inactive) | > 30 µM (inactive) |

Further lines, results first:

| Kd [1] | Kd [2] | Kd [3] | Kd [4] | Kd [5] | Kd [6] | SMILES |
| --- | --- | --- | --- | --- | --- | --- |
| > 30 µM (inactive) | > 30 µM (inactive) | > 30 µM (inactive) | > 30 µM (inactive) | > 30 µM (inactive) | > 30 µM (inactive) | Cc1c(F)cc(C(=O)NC2CC2)cc1-c1ccc(C(=O)NCC(C)(C)C)cn1 [LOSMAPIMOD] |
| > 30 µM (inactive) | > 30 µM (inactive) | > 30 µM (inactive) | > 30 µM (inactive) | > 30 µM (inactive) | > 30 µM (inactive) | CCn1c(=O)c(-c2cc[nH]n2)cc2c(C)nc(N)nc21 [VOXTALISIB] |
| 8.63 µM (active) | > 30 µM (inactive) | 3.59 µM (active) | > 30 µM (inactive) | > 30 µM (inactive) | > 30 µM (inactive) | CN1CCC(CNc2ccc3ncc(-c4cccc(OC(F)(F)F)c4)n3n2)CC1 [SGI-1776] |
| > 30 µM (inactive) | > 30 µM (inactive) | > 30 µM (inactive) | > 30 µM (inactive) | > 30 µM (inactive) | > 30 µM (inactive) | O=c1sn(-c2cccc3ccccc23)c(=O)n1Cc1ccccc1 [TIDEGLUSIB] |
| > 30 µM (inactive) | > 30 µM (inactive) | > 30 µM (inactive) | > 30 µM (inactive) | > 30 µM (inactive) | > 30 µM (inactive) | COc1cc(OC)c(/C=C/S(=O)(=O)Cc2ccc(OC)c(NCC(=O)O)c2)c(OC)c1 [RIGOSERTIB] |
| > 30 µM (inactive) | > 30 µM (inactive) | > 30 µM (inactive) | > 30 µM (inactive) | > 30 µM (inactive) | > 30 µM (inactive) | C[C@@H](c1ccc2nccn2c1)n1nnc2ncc(-c3cnn(C)c3)nc21 [SAVOLITINIB] |
| 0.658 µM (active) | > 30 µM (inactive) | > 30 µM (inactive) | > 30 µM (inactive) | > 30 µM (inactive) | > 30 µM (inactive) | CN(C)C(=O)c1cc2cnc(Nc3ccc(N4CCNCC4)cn3)nc2n1C1CCCC1 [RIBOCICLIB] |
| 0.674 µM (active) | > 30 µM (inactive) | > 30 µM (inactive) | > 30 µM (inactive) | > 30 µM (inactive) | > 30 µM (inactive) | C1=C/COCc2cc(ccc2OCCN2CCCC2)Nc2nccc(n2)-c2cccc(c2)COC/1 [PACRITINIB] |
| 0.176 µM (active) | > 30 µM (inactive) | > 30 µM (inactive) | > 30 µM (inactive) | > 30 µM (inactive) | > 30 µM (inactive) | CNC(=O)CN1CCC(Oc2cc3c(Nc4cccc(Cl)c4F)ncnc3cc2OC)CC1 [SAPITINIB] |

Source: ChEMBL document CHEMBL3991601, “The target landscape of clinical kinase drugs” (Science, 2017)
